Literature values as cited in US5888537A, “Vinca alkaloid vesicles with enhanced efficacy and tumor targeting properties” (priority 1997, dated 1999).
Read-outs that look alike come from different tables or passages of the source.

Conditions: clinical use, background

SMILES	side effect (listed as Vincristine)	side effect (listed as vincristine)	side effect
CC[C@]1(O)C[C@H]2CN(CCc3c([nH]c4ccccc34)[C@@](C(=O)OC)(c3cc4c(cc3OC)N(C=O)[C@H]3[C@@](O)(C(=O)OC)[C@H](OC(C)=O)[C@]5(CC)C=CCN6CC[C@]43[C@@H]65)C2)C1 [Free Vcr, vincristine]	Neurotoxicity	Alopecia and hair loss	
CC[C@]1(O)C[C@@H]2CN(CCc3c([nH]c4ccccc34)[C@@](C(=O)OC)(c3cc4c(cc3OC)N(C)[C@H]3[C@@](O)(C(=O)OC)[C@H](OC(C)=O)[C@]5(CC)C=CCN6CC[C@]43[C@@H]65)C2)C1 [vinblastine]			Alopecia and hair loss
